Laboratory results as given in US11304926B2, “Application of transient receptor potential cation channel TRPV3 in developing drug for preventing or treating psoriasis” (CHINA PHARMACEUTICAL UNIVERSITY, priority 2019, dated 2022).
“Also recorded” adds a separate entry of the source.

Tested on: mouse psoriasis model induced by 5% IMQ
Assay: PASI score of mouse psoriasis model induced by imiquimod under drug intervention
Format: in vivo
Conditions: for PASI score: n = 8, mean ± SD
Text: 16 C57BL/6 mice, with half male and half female were purchased from the Experimental Animal Center of Nanjing Medical University, wherein weights of the mice ranged from 18 g to 20 g. Back hair of the mice was shaved off, and then the mice were randomly divided into 2 groups (8 mice in each group) according to male and female genders. Before experiment, the mice were placed in a quiet environment kept away from strong light for 3 days to adapt to the environment, a ratio of an illuminating time to a dark time was 1:1, a room temperature was controlled at 25° C., a humidity was 55%, and the mice could eat and drink freely. 62.5 mg of 5% (0.1 g:2 g) imiquimod ointment (Zhuhai United Laboratories Co., Ltd.) was continuously applied to back skins of the mice for 6 days to induce a psoriasis-like lesion, while the same dose of vaseline ointment was given to the control group.
The clinical symptom of the mouse psoriasis model was evaluated by a PASI scoring standard from three indicators of erythema, scale and infiltration thickening. The scores ranged from 0 point to 4 points, and a total score was obtained by adding scores of the three indicators. The PASI scoring standard was as follows: 0 point referred to no symptom; 1 point referred to a mild degree; 2 points referred to a moderate degree; 3 points referred to a severe degree; and 4 points referred to an extremely severe degree. The PASI evaluation was conducted daily before the IMQ ointment was applied.
C57BL/6 mice, with half male and half female were purchased from the Experimental Animal Center of Nanjing Medical University, wherein weights of the mice ranged from 18 g to 20 g. The C57BL/6 mice were randomly divided into 4 groups (8 mice in each group). Mouse psoriasis models were established as described in Embodiment 2 (1). […]
Back skins of the mice were photographed and recorded on the 1st, 3rd and 5th days after modeling.

[1] = subcutaneous injection, 5% IMQ model

O=c1cc(-c2ccc(O)cc2)oc2cc(O)c(O)c(O)c12 [Scutellarein]
PASI score (day 1, 0.1‰ scutellarein s.c. 100 μL twice a day + imiquimod): 0.0 ± 0.0
PASI score (day 1, 0.2‰ scutellarein s.c. 100 μL twice a day + imiquimod): 0.0 ± 0.0
PASI score (day 2, 0.1‰ scutellarein s.c. 100 μL twice a day + imiquimod): 0.5 ± 0.6
PASI score (day 2, 0.2‰ scutellarein s.c. 100 μL twice a day + imiquimod): 0.0 ± 0.0
PASI score (day 3, 0.1‰ scutellarein s.c. 100 μL twice a day + imiquimod): 1.8 ± 0.9
PASI score (day 3, 0.2‰ scutellarein s.c. 100 μL twice a day + imiquimod): 0.5 ± 0.6
PASI score (day 4, 0.1‰ scutellarein s.c. 100 μL twice a day + imiquimod): 1.8 ± 1.0
PASI score (day 4, 0.2‰ scutellarein s.c. 100 μL twice a day + imiquimod): 0.8 ± 0.9
PASI score (day 5, 0.1‰ scutellarein s.c. 100 μL twice a day + imiquimod): 3.0 ± 0.8
PASI score (day 5, 0.2‰ scutellarein s.c. 100 μL twice a day + imiquimod): 2.0 ± 1.2
occurrence of the lesion induced by imiquimod [1]: delay occurrence of the lesion
psoriasis-like lesion on the back skins of the mice (appearance) [1]: could relieve the psoriasis-like lesion; also recorded: can improve the lesion; also recorded: significantly relieve
